How the values were obtained:
Format in all cases: in vivo, dog
[1] = test system: dogs, anxiety associated with separation and with novel sight and sound stimuli; assay: Example 2: canine anxiety model, separation phase and stimulation phase, various dosages of compound of Formula 1
Experimental: The present invention also concerns a method for testing compounds for anxiolytic effect in dogs. The model is designed to induce separation anxiety as well as anxiety due to novel visual and auditory stimuli. To determine whether a test compound has an anxiolytic effect in dogs, separation anxiety and anxiety associated with novel sight and sound stimuli are measured both with and without administration of the test compound. In one preferred embodiment, observations are made on five different anxiety behaviors during a 15-minute separation phase and a 15-minute stimulation phase. These anxiety behaviors are vocalization (barking, crying, growling); hyperactivity (jumping, pacing, circling); destruction (chewing, pawing, digging); salivation; and tremor. […] In addition to direct observation, dogs are videotaped during testing for documentation of behaviors. In one preferred embodiment, a dog is removed from a group pen and placed in an isolation cage. A tester, positioned behind a screen out of view, starts a timer for 15 minutes and a video recorder. […] At the end of the separation phase, the timer is re-set to 15 minutes and a child-size doll mounted on a remote controlled car is driven around the pen continuously. After 10 minutes, the doll and car are driven behind the screen and a child's fazer gun with a variety of sounds is continually activated for 5 minutes. At the end of the stimulation phase, the accumulated time for each behavior is recorded and the video recorder stopped. The dog is removed from the isolation cage and returned to the group pen. Preferably, a complete cross-over study design with test compound and placebo is used. Each treatment period is 21 days in length. Study “day 0” is used to designate the initial day of dosing. Anxiety testing is conducted on study days 6 and 20 within each period. Animals are allocated to treatment group, sequence, pen and evaluation order using a randomization plan. Dogs remain within the same sequence during progression of the cross-over phases of the study so that all possible treatment orders are evenly represented. Preferably, “day 0” is staggered such that 3-6 dogs are evaluated per day. Treatment administration is adjusted on testing days such that each animal is tested at the predicted Cmax for the test compound. Anxiety testing is preferably conducted between 11 AM and 4 PM to account for time-of-day variations in behavior. Animals are fed at the conclusion of testing. A three-week washout is observed between periods. Various dosages of the compound of Formula 1 were tested to determine an optimal dose. Anxiety associated with separation and with novel sight and sound stimuli was measured. Observations are made on two different anxiety behaviors during a 15-minute separation phase and a 15-minute stimulation phase. These behaviors are vocalization (barking, crying, growling) and hyperactivity (jumping, pacing, circling). […] In addition to direct observation, dogs are videotaped during testing for documentation of behaviors. The dog is removed from a group pen and placed in an isolation cage in an adjacent room. The tester, positioned behind a screen out of view, starts a timer for 15 minutes and the video recorder. […] At the end of the separation phase, the timer is re-set to 15 minutes and a child-size doll mounted on a remote controlled car is driven around the pen continuously. After 10 minutes, the doll and car are driven behind the screen and a child's fazer gun with a variety of sounds is continually activated for 5 minutes. At the end of the stimulation phase, the accumulated time for each behavior is recorded and the video recorder stopped. The dog is removed from the isolation cage and returned to the group pen.

[2] = test system: Adult dogs with spontaneous anxiety to isolation and/or unfamiliar humans; assay: Example 1: anxiety behaviors of dogs during 15-minute separation phase, compound of Formula 1 vs. placebo, double-blind crossover; conditions: for Hyperactivity Mean, Geometric Mean Time / Vocalization Mean, Geometric Mean Time: 0.1 mg/kg SC once daily, Separation Phase, vs. placebo
Experimental: To evaluate the anxiolytic effects of a compound of Formula 1 vs. placebo after seven and twenty-one days of parenteral dosing at 0.1 mg/kg SID, the following procedure was followed.
Adult dogs with spontaneous anxiety to isolation and/or unfamiliar humans were treated for twenty-one consecutive days with the compound of Formula 1 or a placebo control. Dogs were tested after seven and twenty-one days of dosing. “Day 0” was used to identify the initial day of dosing. The study was conducted using a double-blind crossover design. Treatment periods were 21 days in duration, with a 28 day washout period between treatments. Dogs were randomly assigned to treatment groups such that those receiving compound at the first replicate received placebo on the second replicate. The placebo treatments served as the negative control.
All study participants were blinded to treatment groups. The compound of Formula 1 was administered at a dose of 0.1 mg/kg. The volume of vehicle control used for the placebo treatments was equivalent to the calculated volume of test compound that would have been administered had the animal been receiving drug. All test articles were administered by subcutaneous injection once daily.
On the day of testing, each dog was placed in a cage in an isolated room for 15 minutes. A hidden observer timed any anxious behavior. Animals were tested on dosing day 6 and day 20, starting 2 hours after the dose of the day.
Abnormal anxiety behaviors were studied. Observations were made on two different anxiety behaviors during a 15-minute separation phase. These behaviors are vocalization (barking, crying, growling) and hyperactivity (jumping, pacing, circling).

[3] = test system: Adult dogs, separation behavior; assay: Example 3: behavior scores in dogs after ten consecutive oral doses of compound of Formula 2 vs. placebo, cross-over; conditions: 5 mg/kg oral BID, 10 doses
Experimental: Adult dogs received ten consecutive oral doses of a compound of Formula 2 at 5 mg/kg BID or placebo in a cross-over design and effects on behavior were determined beginning one-hour post-dose.
Appropriate amounts of the compound of Formula 2 were weighed and placed in capsules. Capsules were back-filled with dextrose.
Capsules were administered by placing them in the back of the throat and allowing the dogs to swallow. On the day of behavior testing, dogs were fasting at dosing.
Dogs were divided equally into two treatment groups. Treatment Group 1 received 10 consecutive oral doses of the compound of Formula 2 BID at 5 mg/kg and Treatment Group 2 received 10 consecutive oral dextrose placebos BID. At the conclusion of the first half of the study, the protocol was repeated and dogs in Treatment Group 1 received 10 consecutive oral dextrose placebos BID and dogs in Treatment Group 2 received 10 consecutive oral doses of the compound of Formula 2 BID at 5 mg/kg.
Dogs began compound dosing at 1830 and continued for 10 consecutive BID doses. The final dose (dose #10) occurred the morning of testing, one hour prior to the start. Dogs were tested in three 15-minute testing phases in which behavior was scored every 5 minutes. Dogs were videotaped during the testing period.

[4] = 0.03 mg/kg, Separation, Day 6, vs. Day −1
[5] = 0.03 mg/kg, Separation, Day 20, vs. Day −1
[6] = 0.03 mg/kg, Stimulation, Day 6, vs. Day −1
[7] = 0.03 mg/kg, Stimulation, Day 20, vs. Day −1
[8] = 0.1 mg/kg, Separation Phase, Day 6, vs. placebo
[9] = 0.1 mg/kg, Separation Phase, Day 20, vs. placebo
[10] = 0.1 mg/kg, Separation, Day 6, vs. Day −1
[11] = 0.1 mg/kg, Separation, Day 20, vs. Day −1
[12] = 0.1 mg/kg, Stimulation Phase, Day 6, vs. placebo
[13] = 0.1 mg/kg, Stimulation Phase, Day 20, vs. placebo
[14] = 0.1 mg/kg, Stimulation, Day 6, vs. Day −1
[15] = 0.1 mg/kg, Stimulation, Day 20, vs. Day −1
[16] = 0.3 mg/kg, Separation, Day 6, vs. Day −1
[17] = 0.3 mg/kg, Separation, Day 20, vs. Day −1
[18] = 0.3 mg/kg, Stimulation, Day 6, vs. Day −1
[19] = 0.3 mg/kg, Stimulation, Day 20, vs. Day −1
[20] = 1 mg/kg, Separation Phase, Day 6, vs. placebo
[21] = 1 mg/kg, Separation Phase, Day 20, vs. placebo
[22] = 1 mg/kg, Stimulation Phase, Day 6, vs. placebo
[23] = 1 mg/kg, Stimulation Phase, Day 20, vs. placebo

## COc1ccc(C(C)(C)C)cc1CN[C@H]1C2CCN(CC2)[C@H]1C(c1ccccc1)c1ccccc1 [Compound of Formula 1, (2S.3S) (2-Benzhydryl-1-aza-bicyclo[2.2.2]oct-3-yl)-(5-tert-butyl-2-methoxy-benzyl)-amine]
[1]; [4]
  Hyperactivity Mean, Geometric Mean Time: 19.4 s
  Vocalization Mean, Geometric Mean Time: 10.6 s
[1]; [5]
  Hyperactivity Mean, Geometric Mean Time: 20.1 s
  Vocalization Mean, Geometric Mean Time: 12.1 s
[1]; [6]
  Hyperactivity Mean, Geometric Mean Time: 38.6 s
  Vocalization Mean, Geometric Mean Time: 24.5 s
[1]; [7]
  Hyperactivity Mean, Geometric Mean Time: 28.2 s
  Vocalization Mean, Geometric Mean Time: 35.6 s
[1]; [8]
  Hyperactivity Mean, Geometric Mean Time: 24.1 s
  Vocalization Mean, Geometric Mean Time: 29.0 s
[1]; [9]
  Hyperactivity Mean, Geometric Mean Time: 19.1 s
  Vocalization Mean, Geometric Mean Time: 25.5 s
[1]; [10]
  Hyperactivity Mean, Geometric Mean Time: 24.7 s
  Vocalization Mean, Geometric Mean Time: 15.5 s
[1]; [11]
  Hyperactivity Mean, Geometric Mean Time: 14.8 s
  Vocalization Mean, Geometric Mean Time: 9.1 s
[1]; [12]
  Hyperactivity Mean, Geometric Mean Time: 46.7 s
  Vocalization Mean, Geometric Mean Time: 35.3 s
[1]; [13]
  Hyperactivity Mean, Geometric Mean Time: 51.2 s
  Vocalization Mean, Geometric Mean Time: 26.4 s
[1]; [14]
  Hyperactivity Mean, Geometric Mean Time: 48.8 s
  Vocalization Mean, Geometric Mean Time: 36.8 s
[1]; [15]
  Hyperactivity Mean, Geometric Mean Time: 28.4 s
  Vocalization Mean, Geometric Mean Time: 24.7 s
[1]; [16]
  Hyperactivity Mean, Geometric Mean Time: 49.7 s
  Vocalization Mean, Geometric Mean Time: 20.9 s
[1]; [17]
  Hyperactivity Mean, Geometric Mean Time: 39.1 s
  Vocalization Mean, Geometric Mean Time: 18.2 s
[1]; [18]
  Hyperactivity Mean, Geometric Mean Time: 43.1 s
  Vocalization Mean, Geometric Mean Time: 15.9 s
[1]; [19]
  Hyperactivity Mean, Geometric Mean Time: 41.9 s
  Vocalization Mean, Geometric Mean Time: 19.2 s
[1]; [20]
  Hyperactivity Mean, Geometric Mean Time: 23.3 s
  Vocalization Mean, Geometric Mean Time: 5.8 s
[1]; [21]
  Hyperactivity Mean, Geometric Mean Time: 16.8 s
  Vocalization Mean, Geometric Mean Time: 6.9 s
[1]; [22]
  Hyperactivity Mean, Geometric Mean Time: 22.7 s
  Vocalization Mean, Geometric Mean Time: 6.5 s
[1]; [23]
  Hyperactivity Mean, Geometric Mean Time: 36.0 s
  Vocalization Mean, Geometric Mean Time: 7.4 s
[1]; SC, dosages tested 0.03, 0.1, 0.3, 1 mg/kg
  most efficacious dosage in dogs among those dosages tested: 0.1 mg/kg
[2]; 0.1 mg/kg SC, compared with placebo
  effectiveness at treating vocalization and hyperactivity resulting from separation: more effective than placebo

## COc1ccc(OC(F)(F)F)cc1CN[C@H]1CCCN[C@H]1c1ccccc1 [Compound of Formula 2]
[3]; Dog ID 70954
  Separation Hyperactivity 0-15 min, behavior score as estimated duration of time: 2 s
  Separation Vocalization 0-15 min, behavior score as estimated duration of time: 0 s
[3]; Dog ID 215155
  Separation Hyperactivity 0-15 min, behavior score as estimated duration of time: 2 s
  Separation Vocalization 0-15 min, behavior score as estimated duration of time: 12 s
[3]; Dog ID 219622
  Separation Hyperactivity 0-15 min, behavior score as estimated duration of time: 30 s
  Separation Vocalization 0-15 min, behavior score as estimated duration of time: 22 s
[3]; Dog ID 227641
  Separation Hyperactivity 0-15 min, behavior score as estimated duration of time: 2 s
  Separation Vocalization 0-15 min, behavior score as estimated duration of time: 2 s
[3]; Dog ID 234923
  Separation Hyperactivity 0-15 min, behavior score as estimated duration of time: 2 s
  Separation Vocalization 0-15 min, behavior score as estimated duration of time: 0 s
[3]; Dog ID 240893
  Separation Hyperactivity 0-15 min, behavior score as estimated duration of time: 6 s
  Separation Vocalization 0-15 min, behavior score as estimated duration of time: 0 s
[3]; Dog ID 2943450
  Separation Hyperactivity 0-15 min, behavior score as estimated duration of time: 18 s
  Separation Vocalization 0-15 min, behavior score as estimated duration of time: 30 s
[3]; Dog ID HIHMFU
  Separation Hyperactivity 0-15 min, behavior score as estimated duration of time: 12 s
  Separation Vocalization 0-15 min, behavior score as estimated duration of time: 0 s
[3]; Mean of 8 dogs
  Separation Hyperactivity 0-15 min, behavior score as estimated duration of time: 9.25 s
  Separation Vocalization 0-15 min, behavior score as estimated duration of time: 8.25 s
[2]; Day 6
  Hyperactivity Mean, Geometric Mean Time: 24.1 s
  Vocalization Mean, Geometric Mean Time: 29.0 s
[2]; Day 20
  Hyperactivity Mean, Geometric Mean Time: 19.1 s
  Vocalization Mean, Geometric Mean Time: 25.5 s

Reference: patent US20030139443A1, “Use of tachykinin antagonists, including NK-1 receptor antagonists, to modify unwanted behavior in dogs, cats and horses” (priority 2001, published 2003)
